Test system: left insula/frontal operculum of ADHD and control groups
Assay: fMRI during N-Back working memory and sustained attention task, on and off medication
Type: in vivo
Conditions: 1-B, 2-B and 3-B N-Back conditions, 0.2 mg/kg and 0.4 mg/kg MP compared with placebo
Excerpt: A General Electric Signa EXCITE 3.0 Tesla MRI scanner is used for implementing the present invention although any of a number of commercial MRI scanners having 3.0 or 1.5 Tesla fields could be used. Typical imaging parameters involve, for example, the acquisition of 36 contiguous axial slices that cover the entire brain (typically 4 mm thick) using a blipped gradient-echo, echoplanar pulse sequence (echo time (TE)=25 msec; interscan period (TR)=[…]; field of view (FOV)=24 cm; 64×64 voxel matrix; 3.75 mm.×3.75 mm in-plane resolution). High resolution (124 axial slices) spoiled GRASS (gradient-recalled at steady-state) anatomic images [TE=3.9 ms; TR (repetition time)=9.5 ms, 120 flip angle, NEX (number of excitations)=1, slice thickness=1.0 mm, FOV=24 cm, matrix size=256×224] are acquired prior to functional imaging for anatomical localization of functional activation and co-registration. Stimulus presentation and general communication to the patient in the MR scanner is accomplished with stereo audio headphones and computer generated images fed into a digital LCD projector which are back projected to the subject and viewed by the patient through prismatic glasses. Subject responses are recorded on a small hand held keyboard or response device including multiple response buttons. […]

`COC(=O)C(c1ccccc1)C1CCCCN1` (stereo not shown) [MP, Methylphenidate] was tested, and the “Group differences (ADHD vs control) in brain activation (percent MR signal intensity)” value was “tended to disappear”.
